One assay relates to HCT-116 and SW620 cells. Put plainly: Expression of apoptosis-related proteins by immunoblotting. Type of assay: cell-based, human. Particulars: colon carcinoma cells, 10 μM. The protocol:
Induction of apoptosis in human colon cancer HCT-116 cell line by Compound 3 (FIG. 8A). The induction of apoptosis was quantitated as the percentage of cells in the sub-G1 region (hypodiplody) of cell cycle analysis. Briefly, cells (5×10^5) were centrifuged and fixed overnight in 70% ethanol at 4° C. Cells were washed 3 times with PBS, incubated for 1 h with 1 mg/ml RNaseA and 20 μg/ml propidium iodide at room temperature, and then analyzed for cell cycle with a Becton Dickinson FACSCalibur flow cytometer (San Jose, Calif.). HCT-116 cells were incubated for the indicated times with 10 μM Compound 3, and apoptosis was then quantitated as percentage of cells in the sub-G1 region in cell cycle analysis by flow cytometry. The position of the sub-G1 peak (hypodiploidy), integrated by apoptotic cells, as well as the G0/G1 and G2/M peaks are indicated by arrows. Untreated control cells were run in parallel. The percentage of cells with a DNA content less than G1 (sub-G1) is indicated in each histogram. The experiment shown is representative of three performed Expression of different apoptosis-related proteins during Compound 3 treatment (FIG. 8B), HCT-116 and SW620 cells were treated with 10 μM Compound 3 for the indicated times and analyzed by immunoblotting with specific antibodies for the indicated proteins. The migration positions of the different proteins are indicated. β-actin was used as a loading control. Data shown are representative of three experiments performed. About 10^7 cells were pelleted by centrifugation, washed with PBS, and lysed. […]

The next assay concerns MM1S cells. Nature of the assay: Multiple myeloma xenograft animal model. Particulars: 2.5 mg/kg i.v. 3 times/week. In kind it is in vivo, CB17-SCID mice. How it is done: The multiple myeloma (MM) MM1S cell line was cultured in RPMI-1640 medium containing 10% (v/v) heat-inactivated fetal bovine serum, 2 mM L-glutamine, 100 U/ml penicillin, and 100 μg/ml streptomycin at 37° C. in humidified 95% air and 5% CO2. Cells were periodically tested for Mycoplasma infection and found to be negative.
CB 17-severe combined immunodeficiency (SCID) mice (Charles River laboratories, Lyon, France), kept and handled according to institutional guidelines, complying with Spanish legislation under a 12/12 h light/dark cycle at a temperature of 22° C., received a standard diet and acidified water ad libitum. CB17-SCID mice were inoculated subcutaneously into their lower dorsum with 3×10^7MM1S cells in 100 μl PBS and 100 μl Matrigel basement membrane matrix (Becton Dickinson). When tumors were palpable, mice were randomly assigned into cohorts of 10 mice each, receiving i.v. administration (3 times/week) of the compound at the tail. The volume used for each i. v. administration was […] rendering a final drug concentration of 2.5 mg/kg (body weight). Mice i.v. administered with an equal volume of vehicle were run in parallel. The shortest and longest diameter of the tumor were measured with calipers, and tumor volume (10^−3 cm^3) was calculated using the following standard formula: […]. Animals were sacrificed, according to institutional guidelines, when the diameter of their tumors reached 3 cm or when significant toxicity was observed. Animal body weight and any sign of morbidity were monitored. Drug treatment was for 1 month. Then, tumors were isolated, measured and weighed, and a necropsy analysis involving tumors and distinct organs was carried out.

The subject of assay [1] is HL-60 (acute myeloid leukaemia). Nature of the assay: Apoptosis, sub-G1 peak by flow cytometry. To be noted: 10 μM, 24 h. In kind it is cell-based, human. How it is done:
(§1) Incubation of Compound 3 with different human hematological cancer cell lines, including CLL, MM, acute T-cell and acute myeloid leukaemia cell lines, induced apoptosis, as assessed by the appearance of cells with a DNA content less than G1, characteristic of early apoptosis (sub-G1 peak; after 6-9 h treatment). More than 20% apoptosis was induced after 24 h treatment of 10 μM Compound 3 with EHEB (CLL), RPMI-8226 (MM), Jurkat (acute T-cell leukaemia) and HL-60 (acute myeloid leukaemia) cells.
(§2) Induction of apoptosis in EHEB cells by Compound 3 (FIG. 7A): EHEB cells were incubated for the indicated times with 10 μM Compound 3, and apoptosis was then quantitated as percentage of cells in the sub-G1 region in cell cycle analysis by flow cytometry. The position of the sub-G1 peak (hypodiploidy), integrated by apoptotic cells, as well as the G0/G1 and G2/M peaks are indicated by arrows. Untreated control cells were run in parallel. The percentage of cells with a DNA content less than G1 (sub-G1) is indicated in each histogram. The experiment shown is representative of three performed. Briefly, cells (5×10^5) were centrifuged and fixed overnight in 70% ethanol at 4° C. Cells were washed 3 times with PBS, incubated for 1 h with 1 mg/ml RNaseA and 20 μg/ml propidium iodide at room temperature, and then analyzed for cell cycle with a Becton Dickinson FACS Calibur flow cytometer (San Jose, Calif.). Quantitation of apoptotic cells was calculated as the percentage of cells in the sub-G1 region (hypodiploidy) in cell cycle analysis.

The subject of another assay is EHEB (CLL). Nature of the assay: Apoptosis, sub-G1 peak by flow cytometry. In kind it is cell-based, human. To be noted: 10 μM, 24 h. How it is done: as §1, §2
The subject of assay [2] is Jurkat (acute T-cell leukaemia). Put plainly: Apoptosis, sub-G1 peak by flow cytometry. To be noted: 10 μM, 24 h. In kind it is cell-based, human. How it is done:
as §1, §2

The test system of another assay is RPMI-8226 (MM). Nature of the assay: Apoptosis, sub-G1 peak by flow cytometry. Particulars: 10 μM, 24 h. In kind it is cell-based, human. The protocol: as §1, §2
For assay [3], the system named is haematological cancer cell lines. Put plainly: Apoptosis induction in haematological cancer cell lines. In kind it is cell-based.

Marks after values point to notes of the source that are not given here.

`Fc1ccc(CNCCCC=C(c2ccccc2)c2ccccc2)cc1` [Compound 3, (5,5-diphenyl-pent-4-enyl)-(4-fluoro-benzyl)-amine hydrocloride]: in the assay on HCT-116 and SW620 cells, the caspase-9 entry is listed as “induction”, the “expression of Mcl-1S” value was “induced the expression” and the “protein level of p53” value is given as “increased”. Moreover, the “MM tumor volume, difference over the control for all measure days” value with MM1S cells (1 month) was “stadistically significant”. Further, in the assay with MM1S cells (ex vivo after 1 month), the “Tumor Volume” value stood at 0.288 cm^3 and the “Tumor Weight” value is 0.647 g. Moreover, in the assay with MM1S cells (vs control, 1 month), the “Inhibition (%) of Tumor Volume” value was 92.26** % and the “Inhibition (%) of Tumor Weight” value is given as 85.84* %. Moreover, in assay [1], the apoptosis result is on record as “More than 20%”. Moreover, in the assay with EHEB (CLL), the apoptosis result is given as “More than 20%”. Further, the apoptosis result in assay [2] was “More than 20%”. Besides, the apoptosis entry in the assay on RPMI-8226 (MM) is listed as “More than 20%”. Moreover, the “concentration inducing apoptosis in haematological cancer cell lines” value in assay [3] is given as ~10^−6 M.
